“Also recorded” adds a separate entry of the source.
Key:
conscious rats = assay: Endothelin-1-induced ischaemic stroke in conscious rats; assay type: in vivo, rat; settings: for hemineglect (sticky tape) test latency / infarct in cortex / infarct in striatum: DiOHF 10 mg/kg or DiOHF3HA 15 mg/kg/day i.v.; for infarct in cortex / infarct in striatum: 72 h
Method: Ischaemic stroke was studied in conscious rats, with daily monitoring of neurological function and post mortem morphological assessment of cerebral infarcts at 72 hours alter stroke. Unilateral, transient cerebral ischaemia and reperfusion was induced in conscious rats by injection of the potent vasoconstrictor endothelin-1 outside but close to the right middle cerebral artery MCA, (via a pre-implanted guide tube). The ensuing stroke was graded on a scale of 0 to 5 by immediate behaviour, and potential neuroprotective compounds were injected intravenously 3 h after the stroke, and at 24 hour intervals thereafter.
Male Hooded Wistar rats (280-340 g) were anaesthetised with pentobarbitone sodium in a volume of 0.6 ml (60 mg/kg i.p.) for insertion of an intravenous (i.v.) catheter into the jugular vein for acute drug administration, A 23-gauge stainless steel guide cannula was then stereotaxically implanted into the piriform cortex 2 mm dorsal to the right MCA (0.2 mm anterior, −5.2 mm lateral and −5.9 mm ventral). The cannula was secured with dental acrylate cement and two small screws inserted into the skull. The scalp was closed with sutures. Rats were housed individually on a 12 h day/night cycle at a temperature of 18-22° C. and allowed to recover for 5 days before induction of stroke.
Vaso constriction of the right middle cerebral artery (MCA) was induced in conscious rats by administration of the potent vasoconstrictor agent endothelin-1 (ET-1) (60 pmol in 3 μl of saline over 10 min) via a 30-gauge injector that protruded 2 mm beyond the end of the previously implanted stereotaxic guide cannula. The injector was held in place by a poly-tubing cuff and the rat was placed in a clear Plexiglass box for observation during ET-1 injection. During stroke induction we observed counter-clockwise circling, clenching and dragging of the contralateral forepaw, validating the correct placement of the cannula. These behavioural changes occurred within 2 to 10 minutes of the commencement of the ET-1 injection and similar behaviours have been reported by other researchers employing this model. We have assigned a rating scale of stroke severity based on these behavioural changes during stroke and have shown that vehicle-treated rats assigned with higher stroke ratings have greater infarct volumes and neurological deficits. […] Rectal temperatures were taken with a thermistor probe, prior to stroke and at 30- or 60-minute intervals for 3 hours after stroke.
All behavioural tests were conducted prior to any procedures (pre-surgery, day 1), immediately prior to ET-1-induced MCA occlusion (pre-ischemia, day 6) and 24, 48 and 72 hours after ET-1-induced MCA occlusion. The behaviour of each rat was compared to pre-stroke, thus each rat acted as its own control. All rats were coded so that the investigator was blinded to treatment condition. Neurological abnormalities were evaluated with the use of a neurological deficit score based on detection of abnormal posture and hemiplegia. Abnormal pastures were assessed by suspending rats by the tail and scoring twisting of the thorax and extension of the forelimbs. Hemiplegia was evaluated when rats were placed on a raised platform. Deficits were deemed to be present when the hind limb contralateral to the infarcted hemisphere slipped off the edge of the platform and/or when the contralateral forelimb slipped off when the snout and whiskers were not in contact with the surface. All behaviours were scored on the following scale: 0=no deficit; 1=slight; 2=moderate; and 3=severe. Thus, when scores were totalled the maximum neurological deficit score was 12. A score of 0 was considered normal.
Sensory hemi-neglect was evaluated using a test consisting of placing adhesive tapes (Avery adhesive label, […] circles) on the distal-radial region of each wrist, Placement of the first tape was randomised between contralateral and ipsilateral limbs. […]

aortic rings = assay: Effect on SNP relaxation of precontracted rat aortic rings; assay type: cell-based
Method: (§1) After wash out and re-equilibration for 30 min, the aortic rings were then submaximally precontracted with PE and U46619, which were used to produce an active tension of 45-60% of the KPSS-induced maximum contraction. When investigating the effects of the flavonoids, flavonol, flavone-3-hemiadipate (F3HA), 3′, 4′-dihydroxyflavone, 3′,4′-dihydroxyflavonol, 3′,4′-dihydroxyflavone-3-hemiadipate (DiOHF3HA), and flavone-3-phosphate (F3P) on vasorelaxant responses, rings were incubated with one of the compounds for 20 mins before they were precontracted submaximally, followed by a cumulative-concentration response curve to ACh (100 nM-10 μM) or SNP ([…]). In experiments using F3P 1000U/L phosphatase was used in some experiments to cleave the phosphate. Some experiments were conducted in the presence and absence of butyryl cholinesterase (BuCHE, 1000 U/L) to cleave the adipate in DiOHF3HA and F3HA.

[1] = Solubility in aqueous solution; assay type: physicochemical; settings: water
rat aortic rings = assay: Relaxation of rat aortic rings in response to A23187 or isoprenaline; assay type: cell-based; settings: 0.1 mM, absence or presence of cholinesterase
[2] = system: endothelium intact aortic rings; assay: Effect on ACh relaxation of precontracted rat aortic rings; assay type: cell-based; settings: substance alone
Method: as §1

anaesthetised sheep = assay: Myocardial ischaemia and reperfusion injury in anaesthetised sheep; assay type: in vivo; settings: higher dose: DiOHF3HA 6.7 mg/kg, DiOHF 5 mg/kg i.v.; 1 h ischaemia, 3 h reperfusion
[3] = system: endothelium-intact (EI) aortic rings; assay: PE-induced contraction of rat aortic rings; assay type: cell-based
Method: Rings were incubated for 20 minutes with DiOHF3HA at a range of concentrations (10^−7-10^−4 M) or vehicle (0.1% dimethyl sulphoxide, DMSO). A concentration response curve to PE (10^−9-10^−5 M) in endothelium-intact (EI) aortic rings was then performed. Experiments were conducted in the presence and absence of BuCHE (1000 U/L) to cleave the adipate in DiOHF3HA.

[4] = all stroke grades (2-4), DiOHF3HA 15 mg/kg/day
[5] = mild to moderate strokes, DiOHF 10 mg/kg or DiOHF3HA 15 mg/kg/day i.v. from 3 h post-stroke

O=C(O)CCCCC(=O)Oc1c(-c2ccc(O)c(O)c2)oc2ccccc2c1=O [DiOHF3HA, 3′,4′-dihydroxyflavone-3-hemiadipate]
area of damage in the striatum (conscious rats; all stroke grades (2-4), DiOHF3HA 15 mg/kg): reduced the area of damage in the striatum | infarct area through the cortex (conscious rats; all stroke grades (2-4), DiOHF3HA 15 mg/kg i.v.): significantly reduced | body weight following stroke (conscious rats; [4]): no significant weight loss | core temperature following intravenous injection (conscious rats; [4]): not significantly different from pre-stroke temperature | hemineglect (sticky label) test latency (conscious rats; [4]): abolished; also recorded: significantly improved neurological function in the hemineglect test | neurological deficit score (conscious rats; all stroke grades (2-4), DiOHF3HA 15 mg/kg/day, 24, 48 or 72 hours): measurably improved neurological deficit scores | hemineglect (sticky tape) test latency (conscious rats; mild to moderate strokes): abolished; also recorded: significantly restored neurological function in the hemineglect test | neurological deficit score (conscious rats; [5]): no effect on neurological deficit scores | infarct in cortex (conscious rats; mild to moderate strokes): significantly reduced | infarct in striatum (conscious rats; mild to moderate strokes): significantly reduced the area of infarct through the striatum | body weight following stroke (conscious rats; mild to moderate strokes, DiOHF3HA 15 mg/kg/day): did not lose weight | effect on relaxant response to SNP (aortic rings; in the presence of BuCHE or phosphatase): significantly increased the sensitivity of the relaxant response to SNP | effect on relaxant response to SNP (aortic rings; substance alone): no effect on relaxant responses to ACh or SNP | solubility in aqueous solution [1]: soluble in aqueous solution, particularly water | relaxation in response to A23187 or isoprenaline (rat aortic rings): no effect on endothelium-dependent relaxation | effect on relaxant response to ACh [2]: no effect on relaxant responses to ACh or SNP | infarct size normalized to the area at risk (IS/AR) (anaesthetised sheep): 49±8% | effect on PE-induced contraction ([3]; alone, 0.1 mM): no effect on PE-induced contraction | effect on PE-induced contraction ([3]; in the presence of esterase (BuCHE)): inhibit the response to PE in a concentration dependent manner; also recorded: marked inhibition

O=c1c(O)c(-c2ccc(O)c(O)c2)oc2ccccc12 [DiOHF, 3′,4′-Dihydroxyflavonol, reference compound]
hemineglect (sticky tape) test latency (conscious rats; mild to moderate strokes): abolished the increase in hemineglect scores | neurological deficit score (conscious rats; [5]): reduced the neurological deficits at 48 and 72 h; also recorded: significantly improved neurological outcome | infarct in cortex (conscious rats; mild to moderate strokes): reduced the volume of infarct produced in the cerebral cortex; also recorded: significantly reduced the area of infarct | infarct in striatum (conscious rats; mild to moderate strokes): completely prevented an infarct developing in the striatum; also recorded: significantly reduced the area of infarct | infarct size normalized to the area at risk (IS/AR) (anaesthetised sheep): 47±8% | effect on PE-induced contraction ([3]; alone, 0.1 mM): inhibit the response to PE in a concentration dependent manner

From patent US8017649B2, “Flavonoid compounds and uses thereof” (Howard Florey Institute of Experimental Physiology and …, priority 2005, dated 2011)
